# Assay results from article PMC11869560, “Anticancer and cancer preventive activities of shogaol and curcumin from Zingiberaceae family plants in KG-1a leukemic stem cells” (BMC Complementary Medicine and Therapies, 2025).
# Read-outs that look alike come from different tables or passages of the source.
# What was measured:
# KG-1a cells = assay: MTT cytotoxicity assay in KG-1a cells; format: cell-based, human; conditions: for Selectivity index (SI): IC50 for normal cells (PBMCs) / IC50 for cancer cells (KG-1a)
# Protocol: (§1) MTT (3-(4,5-dimethylthiazol-2-yl)-2,5-diphenyltetrazolium bromide) assay was used to investigate the cytotoxicity of the test samples. KG-1a (1.5 × 10^4 cells/well), K562 (1.0 × 10^4 cells/well), PBMCs (1.0 × 10^5 cells/well), A549 (5.0 × 10^3 cells/well), MCF-7 (5.0 × 10^3 cells/well), and HeLa (5.0 × 10^3 cells/well) were seeded into a 96-well plate and incubated overnight at 37 °C with 5% CO2. […] After that, 5 mg/mL of MTT dye solution (Sigma-Aldrich, MA, USA) was added and incubated for 4 h. The produced formazan crystals were dissolved in 200 µL of DMSO (Sigma-Aldrich, MA, USA); then, the optical density (OD) was measured using an ELISA plate reader (Metertech, Taipei, Taiwan) at 578 nm with a reference wavelength of 630 nm. The percentage of surviving cells was calculated from the absorbance values of the test and control wells using the following Equation. 1 [drawing 1]
# (§2) where ODsample is a mean absorbance in test well and ODvehicle control is a mean absorbance in VC well. The average percentage of surviving cells at each concentration obtained from triplicate experiments was plotted as a dose-response curve. Inhibitory concentration values at 50% growth (IC50 value) were defined as the lowest concentration of the test sample that inhibited cell growth by 50% compared to the untreated control.
# (§3) To calculate IC50 values, a dose-response curve was fitted using non-linear regression analysis, as described in the GraphPad Prism guidelines (https://www.graphpad.com/support/faq/how-to-determine-an-icsub50sub/). The IC50 value was obtained by determining the point at which the curve intersected 50% growth inhibition. Non-linear regression graphs of the dose-response curve for each compound are provided in the supplementary data file (Figs. S1–S8).
# where IC50 N is IC50 for normal cells and IC50 C is IC50 for cancer cells which were treated with the same compounds in both cells.
# PBMCs = assay: MTT cytotoxicity assay in PBMCs; format: cell-based, human; conditions: Homo sapiens, PBMC
# Protocol: PBMCs were isolated from blood samples using the Ficoll-Hypaque technique. Initially, 10–20 mL of blood was collected in a heparin tube at a ratio of 1:500 from a minimum of three healthy volunteers. Subsequently, the blood samples were diluted with Phosphate buffer saline (PBS), pH 7.4, at a ratio of 1:1 to reduce viscosity. Histopaque-1077 (Sigma-Aldrich, MA, USA) was then underlaid the diluted sample and centrifuged at 400×g for 30 min. The resulting PBMCs were collected, washed with PBS, pH 7.4, and prepared for further experiments.
# as §1, §2, §3
# [1] = tested on: CD34 protein expression in KG-1a cells; assay: CD34 protein expression in KG-1a cells by Western blotting; format: cell-based, human; conditions: IC20 concentrations, 48 h, normalized to GAPDH
# Protocol: (§4) KG-1a cells (1.5 × 10^5 cells/mL) were treated with compounds or extracts at different incubation times. Then, the cells were harvested and the whole proteins were extracted using a RIPA buffer (25 mM Tris-base, pH 7.6, 0.1% SDS, 1% Triton X-100, 150 mM NaCl, and 1 mM EDTA). The protein concentration was measured using the Folin-Lowry or Bradford assay. The whole protein lysates (30 µg/lane) were then separated through 7.5% SDS-PAGE under reducing conditions and then transferred to PVDF membranes. The membranes were blocked in 5% skim milk in PBS, pH 7.4 at RT for 2 h, then, target proteins were probed with specific primary antibodies (anti-WT1, anti-CD34, anti-GAPDH, anti-cleaved caspase-3, anti-cleaved PARP, anti-phospho-Akt, anti-phospho-c-Jun, anti-phospho-SAPK/JNK, and anti-YAP/TAZ) indicated in Table S10 which diluted at a ratio of 1:1,000 in PBS, pH 7.4 at RT for 2 h. After incubation, the membranes were rinsed 6 times with 0.1% Tween-20 (Sigma-Aldrich, MA, USA) in PBS, pH 7.4 (PBS-T), each time for 5 min. The reaction was followed by HRP-conjugated secondary antibody at 1:20,000 dilution in PBS, pH 7.4 at RT for 2 h, then, the membranes were rinsed 6 times for 5 min each with PBS-T. The proteins were shown using Immobilon Forte Western HRP substrate (Millipore, MA, USA). Finally, the protein band signal was quantified by using a scan densitometer (Bio-Rad Laboratories, CA, USA).
# RAW264.7 cells = assay: Cytotoxicity (IC20, cell viability) in RAW264.7 cells; format: cell-based; conditions: Mus musculus, RAW264.7, 48 h, read-out: IC20 RAW264.7 (inhibitory concentration at 20% growth)
# Protocol: MTT (3-(4,5-dimethylthiazol-2-yl)-2,5-diphenyltetrazolium bromide) assay was used to investigate the cytotoxicity of the test samples. […] After that, 5 mg/mL of MTT dye solution (Sigma-Aldrich, MA, USA) was added and incubated for 4 h. The produced formazan crystals were dissolved in 200 μL of DMSO (Sigma-Aldrich, MA, USA); then, the optical density (OD) was measured using an ELISA plate reader ([…], Taiwan) at 578 nm with a reference wavelength of 630 nm. The percentage of surviving cells was calculated from the absorbance values of the test and control wells using the following Equation. 1 [drawing 1] […] Afterward, supernatants were collected, and the levels of TNF-α and NO were measured using the Mouse TNF alpha Uncoated ELISA Kit (InvitrogenTM, ThermoFisher Scientific, MA, USA) and the Total Nitric Oxide Assay Kit (InvitrogenTM, ThermoFisher Scientific, MA, USA), respectively, according to the manufacturer's instructions.
# [2] = tested on: WT1 protein expression in KG-1a cells; assay: WT1 protein expression in KG-1a cells by Western blotting; format: cell-based, human; conditions: IC20 concentrations, 48 h, normalized to GAPDH
# Protocol: as §4
# [3] = Table S8, PBMCs, first replicate, read-out: IC50 value R1
# [4] = Table S8, PBMCs, second replicate, read-out: IC50 value R2
# [5] = Table S8, PBMCs, third replicate, read-out: IC50 value R3
# [6] = active compounds and drugs, MTT, 48 h, read-out: IC50 PBMCs
compound,measurement,setting,value
"O=P1(N(CCCl)CCCl)NCCCO1 (stereo not drawn) [Cyclophosphamide, cyclophosphamide, reference compound]",IC50,"KG-1a cells; Homo sapiens, KG-1a, 48 h, read-out: IC50 KG-1a",> 400 µg/mL
same,IC50,"KG-1a cells; Homo sapiens, KG-1a, read-out: IC50 value Mean",> 400 µg/mL
same,IC50,"KG-1a cells; Homo sapiens, KG-1a, read-out: IC50 value R1",> 400 µg/mL
same,IC50,"KG-1a cells; Homo sapiens, KG-1a, read-out: IC50 value R2",> 400 µg/mL
same,IC50,"KG-1a cells; Homo sapiens, KG-1a, read-out: IC50 value R3",> 400 µg/mL
same,IC50,"PBMCs; 48 h, read-out: IC50 PBMCs",> 400 µg/mL
same,IC50,PBMCs; read-out: IC50 value Mean,> 400 µg/mL
same,IC50,PBMCs; read-out: IC50 value R1,> 400 µg/mL
same,IC50,PBMCs; read-out: IC50 value R2,> 400 µg/mL
same,IC50,PBMCs; read-out: IC50 value R3,> 400 µg/mL
"Nc1ccn([C@@H]2O[C@H](CO)[C@@H](O)[C@@H]2O)c(=O)n1 [Cytarabine, cytarabine, reference compound]",IC50,"KG-1a cells; Homo sapiens, KG-1a, 48 h, active compounds and drugs, MTT, 48 h, read-out: IC50 KG-1a",> 100 µg/mL
same,IC50,"KG-1a cells; Homo sapiens, KG-1a, Table S7, KG-1a, first replicate, read-out: IC50 value R1",> 100 µg/mL
same,IC50,"KG-1a cells; Homo sapiens, KG-1a, Table S7, KG-1a, mean of R1-R3, read-out: IC50 value Mean",> 100 µg/mL
same,IC50,"KG-1a cells; Homo sapiens, KG-1a, Table S7, KG-1a, second replicate, read-out: IC50 value R2",> 100 µg/mL
same,IC50,"KG-1a cells; Homo sapiens, KG-1a, Table S7, KG-1a, third replicate, read-out: IC50 value R3",> 100 µg/mL
same,Selectivity index (SI),KG-1a cells; 48 h,> 1
same,IC50,PBMCs; [3],> 100 µg/mL
same,IC50,"PBMCs; Table S8, PBMCs, mean of R1-R3, read-out: IC50 value Mean",> 100 µg/mL
same,IC50,PBMCs; [4],> 100 µg/mL
same,IC50,PBMCs; [5],> 100 µg/mL
same,IC50,PBMCs; [6],> 100 µg/mL
"COc1cc(/C=C/C(O)=C/C(=O)/C=C/c2ccc(O)cc2)ccc1O [Demethoxycurcumin, demethoxycurcumin]",IC50,"KG-1a cells; Homo sapiens, KG-1a, active compounds and drugs, MTT, 48 h, read-out: IC50 KG-1a",11.3 ± 0.85 µg/mL
same,IC20,"KG-1a cells; Homo sapiens, KG-1a, incubation for 48 h, read-out: IC20 KG-1a (inhibitory concentration at 20% growth)",3.69 ± 0.53 µg/mL
same,IC50,"KG-1a cells; Homo sapiens, Table S7, KG-1a, first replicate, read-out: IC50 value R1",10.3 µg/mL
same,IC50,"KG-1a cells; Homo sapiens, Table S7, KG-1a, second replicate, read-out: IC50 value R2",11.6 µg/mL
same,IC50,"KG-1a cells; Homo sapiens, Table S7, KG-1a, third replicate, read-out: IC50 value R3",11.9 µg/mL
same,Selectivity index (SI),KG-1a cells; 48 h,1.23
same,Selectivity index (SI),"KG-1a cells; 48 h, listed as demethoxycurcumin",greater than 1
same,decrease of CD34 protein level compared to VC,[1],32.79 ± 1.56%
same,IC20,RAW264.7 cells,5.94 ± 2.02 µg/mL
same,decrease of WT1 protein level compared to VC,[2],33.37 ± 3.87%
same,IC50,PBMCs; [3],14.2 µg/mL
same,IC50,PBMCs; [4],13.6 µg/mL
same,IC50,PBMCs; [5],13.9 µg/mL
same,IC50,PBMCs; [6],13.9 ± 0.28 µg/mL
same,IC20,"PBMCs; incubation for 48 h, read-out: IC20 PBMCs (inhibitory concentration at 20% growth)",7.95 ± 0.26 µg/mL
